Patent publication US20090143279A1 (priority 2007, published 2009)
Where “and” joins values, the source holds several entries; their conditions need not be identical. Equal values may be shown once. Read-outs that look alike come from different tables or passages of the source. Where a SMILES comes first, the peptide text is derived from it.

Tested on: cytochrome c
Assay type: cell-based, mouse
[1] = composite Z-score vs mock-treated (DMSO) wells, concentration of each compound in μM
[2] = normalized score (composite Z-score vs DMSO mock-treated wells), compound concentration (μM)

O=C(CCCN1CC=C(n2c(=O)[nH]c3ccccc32)CC1)c1ccc(F)cc1 [droperidol]
cyt c (composite Z-score vs DMSO): 0.270 and 0.161

CCCCCCCC/C=C/CCCCCCCCOP(=O)([O-])OCC[N+](C)(C)C [elaidylphosphocholine]
cyt c [1]: −0.840

CCCSP(=O)(OCC)SCCC [ethoprop]
cyt c: 0.271

CCc1cccc(CC)c1NC(=O)CN(CC(=O)O)CC(=O)O [etifenin]
cyt c [1]: 0.092

O=C(OCCOCCO)c1ccccc1Nc1cccc(C(F)(F)F)c1 [etofenamate]
cyt c: −0.030

CCOC(=O)C1=C(C)NC(C)=C(C(=O)OC)C1c1cccc(Cl)c1Cl (stereo not drawn) [felodipine]
cyt c [1]: −0.956

CC(C)(C(=O)O)c1ccc(C(O)CCCN2CCC(C(O)(c3ccccc3)c3ccccc3)CC2)cc1 (stereo not drawn) [fexofenadine]
cyt c: −0.751

OC(Cn1cncn1)(Cn1cncn1)c1ccc(F)cc1F [fluconazole]
cyt c (composite Z-score vs DMSO): 0.741

CC1(C)O[C@@H]2C[C@H]3[C@@H]4C[C@H](F)C5=CC(=O)C=C[C@]5(C)[C@H]4[C@@H](O)C[C@]3(C)[C@]2(C(=O)CO)O1 [flunisolide]
cyt c: 0.715 | cyt c (composite Z-score vs DMSO): −0.257

OCCN1CCN(CCCN2c3ccccc3Sc3ccc(C(F)(F)F)cc32)CC1 [fluphenazine]
cyt c (composite Z-score vs DMSO mock-treated wells): −0.074

COCCCC/C(=N\OCCN)c1ccc(C(F)(F)F)cc1 [fluvoxamine]
cyt c: 0.483

Cc1cc(O)c(C=O)c2c1C(=O)Oc1c(COC(=O)/C=C/C(=O)O)c(O)c(C(=O)O)c(C)c1O2 [fumarprotocetraric acid]
cyt c [1]: 0.505

NS(=O)(=O)c1cc(C(=O)O)c(NCc2ccco2)cc1Cl [furosemide]
cyt c (composite Z-score vs DMSO mock-treated wells): 0.234 and 0.342

COc1ccc(-c2ccc(=N)n(CCCC(=O)O)n2)cc1 [gabazine]
cyt c: −0.094

COc1ccc2c3c1O[C@H]1C[C@@H](O)C=C[C@@]31CCN(C)C2 [galanthamine]
cyt c: −1.112

CC(C)=CCC[C@]1(C)C=Cc2c(O)c3c(c(CC=C(C)C)c2O1)O[C@]12C(=C[C@@H]4C[C@H]1C(C)(C)O[C@@]2(C/C=C(/C)C(=O)O)C4=O)C3=O [gambogic acid]
cyt c [1]: −5.596

CO/N=C1\CN(c2nc3c(cc2F)c(=O)c(C(=O)O)cn3C2CC2)CC1CN (stereo not drawn) [gemifloxacin]
cyt c [1]: 0.009

O=c1c(-c2ccc(O)cc2)coc2cc(O)cc(O)c12 [genistein]
cyt c (composite Z-score vs DMSO): 0.295

O=C(O)c1cc(O)ccc1O [gentisic acid]
cyt c (composite Z-score vs DMSO mock-treated wells): 0.210

CC(C)=CCC/C(C)=C/COC(=O)C=Cc1ccccc1 [geranyl cinnamate]
cyt c [1]: −0.107

Cc1ccc(S(=O)(=O)NC(=O)NN2CC3CCCC3C2)cc1 (stereo not drawn) [gliclazide]
cyt c [1]: 0.147

Cc1cnc(C(=O)NCCc2ccc(S(=O)(=O)NC(=O)NC3CCCCC3)cc2)cn1 [glipizide]
cyt c (composite Z-score vs DMSO): 0.287

N[C@@H](CCC(=O)N[C@@H](CS)C(=O)NCC(=O)O)C(=O)O [glutathione]
cyt c (composite Z-score vs DMSO): −0.913

C[N+]1(C)CCC(OC(=O)C(O)(c2ccccc2)C2CCCC2)C1 (stereo not drawn) [glycopyrrolate]
cyt c: 0.260

NCCc1c[nH]cn1 [histamine]
cyt c (composite Z-score vs DMSO): 0.016

CC[C@H]1CN2CC[C@H]1C[C@H]2[C@H](O)c1ccnc2ccc(OC)cc12 [hydroquinine]
cyt c [1]: 0.004

Oc1ccc(O)cc1 [hydroquinone]
cyt c (composite Z-score vs DMSO): −4.999

OCCOCCN1CCN(C(c2ccccc2)c2ccc(Cl)cc2)CC1 (stereo not drawn) [hydroxyzine]
cyt c [2]: 0.258

CN1[C@@H]2CC[C@H]1C[C@@H](OC(=O)[C@H](CO)c1ccccc1)C2 [hyoscyamine]
cyt c: 0.319 | cyt c (composite Z-score vs DMSO mock-treated wells): 0.235

O=c1[nH]cnc2nc[nH]c12 [hypoxanthine]
cyt c: 0.608

COc1ccc(-c2oc3c(CC=C(C)C)c(O[C@@H]4O[C@H](CO)[C@@H](O)[C@H](O)[C@H]4O)cc(O)c3c(=O)c2O[C@@H]2O[C@@H](C)[C@H](O)[C@@H](O)[C@H]2O)cc1 [icariin]
cyt c [1]: 0.073

C[C@@H](O)[C@H]1C(=O)N2C(C(=O)O)=C(SCCN=CN)C[C@H]12 [imipenem]
cyt c: −0.330

CC(=O)N(CC(O)CN(C(C)=O)c1c(I)c(C(=O)NCC(O)CO)c(I)c(C(=O)NCC(O)CO)c1I)c1c(I)c(C(=O)NCC(O)CO)c(I)c(C(=O)NCC(O)CO)c1I (stereo not drawn) [iodixanol]
cyt c [1]: −0.092

COCC(=O)Nc1c(I)c(C(=O)NCC(O)CO)c(I)c(C(=O)N(C)CC(O)CO)c1I (stereo not drawn) [iopromide]
cyt c [1]: 0.263

O=C(NCC(O)CO)c1c(I)c(C(=O)NCC(O)CO)c(I)c(N(CCO)C(=O)CO)c1I (stereo not drawn) [ioversol]
cyt c: 0.129

Clc1ccc(C(Cn2ccnc2)OCc2c(Cl)cccc2Cl)c(Cl)c1 (stereo not drawn) [isoconazole]
cyt c [2]: −0.572

O=C(/C=C/c1ccc(O)cc1)c1ccc(O)cc1O [isoliquiritigenin]
cyt c (composite Z-score): 0.089

COc1c2ccoc2c(OC)c2oc(=O)ccc12 [isopimpinellin]
cyt c: 0.230

COC(=O)C1=C(C)NC(C)=C(C(=O)OC(C)C)C1c1cccc2nonc12 (stereo not drawn) [isradipine]
cyt c [1]: 0.236

O=C1C=CC(=O)c2c(O)cccc21 [juglone]
cyt c (composite Z-score vs DMSO): 0.266

CC(=O)N1CCN(c2ccc(OCC3COC(Cn4ccnc4)(c4ccc(Cl)cc4Cl)O3)cc2)CC1 (stereo not drawn) [ketoconazole]
cyt c: 0.406 | cyt c (composite Z-score vs DMSO mock-treated wells): 0.109

CC(C)=CCC[C@@H](C)[C@H]1CC[C@@]2(C)C3=C(CC[C@]12C)[C@@]1(C)CC[C@H](O)C(C)(C)[C@@H]1CC3 [lanosterol]
cyt c [1]: 0.383

O=C1C=C(O)C(=O)c2ccccc21 [lawsone]
cyt c: −0.273

NCCCC[C@H](N[C@@H](CCc1ccccc1)C(=O)O)C(=O)N1CCC[C@H]1C(=O)O [lisinopril]
cyt c (composite Z-score vs DMSO): 0.265 and 0.412

NCCCC[C@H](N)C(=O)N[C@@H](Cc1ccccc1)C(=O)N[C@@H](Cc1ccc(O)cc1)C(=O)O [lysylphenylalanyltyrosine] (H-Lys-Phe-Tyr-OH)
cyt c [1]: 0.240

C[C@H]1[C@H](C)CC[C@]2(C(=O)O)CC[C@]3(C)C(=CC[C@@H]4[C@@]5(C)C[C@@H](O)[C@H](O)[C@@](C)(CO)[C@@H]5[C@H](O)C[C@]43C)[C@H]12 [madecassic acid]
cyt c [1]: 0.241

CC(=O)O[C@]1(C(C)=O)CC[C@H]2[C@@H]3C=C(C)C4=CC(=O)CC[C@]4(C)[C@H]3CC[C@@]21C [megestrol acetate]
cyt c [1]: 0.810

CC1CCC(C(C)C)C(O)C1 (stereo not drawn) [menthol]
cyt c: −0.074

Cc1cccc(C)c1NC(=O)C1CCCCN1C (stereo not drawn) [mepivacaine]
cyt c [1]: −0.084

CN1CCCCC1CCN1c2ccccc2Sc2ccc([S+](C)[O-])cc21 (stereo not drawn) [mesoridazine]
cyt c (composite Z-score): −0.121

C=N[C@@H](C(=O)N[C@@H]1C(=O)N2[C@@H]1SC(C)(C)[C@@H]2C(=O)O)c1ccccc1 [metampicillin]
cyt c [1]: 0.821

CN(C)C(=N)N=C(N)N [metformin]
cyt c (composite Z-score vs DMSO): 0.597

Cn1cc[nH]c1=S [methimazole]
cyt c (composite Z-score vs DMSO): 1.745 | cyt c (composite Z-score): −0.372

Cc1cccc(C)c1OCC(C)N (stereo not drawn) [mexiletine]
cyt c: 1.114

CN1CCN2c3ccccc3Cc3ccccc3C2C1 (stereo not drawn) [mianserin]
cyt c: 0.027

CN1CCN2c3ccccc3Cc3ccccc3C2C1 (stereo not drawn) [mianserine]
cyt c: 0.473

CN(C/C=C/c1ccccc1)Cc1cccc2ccccc12 [naftifine]
cyt c: 0.645

COc1ccccc1N1CCN(CC(O)COc2cccc3ccccc23)CC1 (stereo not drawn) [naftopidil]
cyt c [1]: 0.382

Oc1ccc2c3c1O[C@H]1[C@@H](O)CC[C@@]4(O)[C@@H](C2)N(CC2CCC2)CC[C@]314 [nalbuphine]
cyt c: 0.276 | cyt c (composite Z-score vs DMSO): −0.613

C=CCN1CC[C@]23c4c5ccc(O)c4O[C@H]2C(=O)CC[C@@]3(O)[C@H]1C5 [naloxone]
cyt c: 0.362 and 0.610

COc1ccc(CCC(=O)c2c(O)cc(O[C@@H]3O[C@H](CO)[C@@H](O)[C@H](O)[C@H]3O[C@@H]3O[C@@H](C)[C@H](O)[C@@H](O)[C@H]3O)cc2O)cc1O [neohesperidin dihydrochalcone]
cyt c: 0.454

COc1ccc2c3c1O[C@H]1[C@@H](O)CC=C4[C@@H](C2)N(C)CC[C@]431 [neopine]
cyt c: 0.421

CCN[C@@H]1C[C@H](N)[C@@H](O[C@H]2OC(CN)=CC[C@H]2N)[C@H](O)[C@H]1O[C@H]1OC[C@](C)(O)[C@H](NC)[C@H]1O [netilmicin]
cyt c [2]: 0.156

O=C(O)c1cccnc1 [niacin]
cyt c (composite Z-score vs DMSO): 0.736 and 1.132

CC1CS(=O)(=O)CCN1/N=C/c1ccc([N+](=O)[O-])o1 (stereo not drawn) [nifurtimox]
cyt c: 0.004

COc1ccc(-c2cc(=O)c3c(OC)c(OC)c(OC)c(OC)c3o2)cc1OC [nobiletin]
cyt c: 0.396

C#C[C@]1(O)CC[C@H]2[C@@H]3CCC4=CC(=O)CC[C@@H]4[C@H]3CC[C@@]21C [norethindrone]
cyt c: 0.903 | cyt c (composite Z-score vs DMSO mock-treated wells): 0.056

C#C[C@]1(O)CC[C@H]2[C@@H]3CCC4=C(CCC(=O)C4)[C@H]3CC[C@@]21C [norethynodrel]
cyt c: −0.145 | cyt c (composite Z-score vs DMSO mock-treated wells): −0.058

CNCCC=C1c2ccccc2CCc2ccccc21 [nortriptyline]
cyt c (composite Z-score vs DMSO): 0.157 and 0.136

CC1(C)CC[C@]2(C(=O)O)CC[C@]3(C)C(=CC[C@@H]4[C@@]5(C)CC[C@H](O)C(C)(C)[C@@H]5CC[C@]43C)[C@@H]2C1 [oleanolic acid]
cyt c: 0.866

COC(=O)Nc1nc2ccc([S+]([O-])c3ccccc3)cc2[nH]1 (stereo not drawn) [oxfendazole, reference compound]
cyt c [1]: −0.224

C=CCOc1ccccc1OCC(O)CNC(C)C (stereo not drawn) [oxprenolol]
cyt c: 0.047

CCN(CC)CC#CCOC(=O)C(O)(c1ccccc1)C1CCCCC1 (stereo not drawn) [oxybutynin]
cyt c: −0.352

O=CC=Cc1ccc(O)cc1 [p-hydroxycinnamaldehyde]
cyt c [1]: −0.079

COc1ccc(C(C)=O)c(O)c1 [paeonol]
cyt c: 0.306

Oc1ccc(Cl)cc1 [parachlorophenol]
cyt c: 0.036

CC(C)(C)NC[C@H](O)COc1ccccc1C1CCCC1 [penbutolol]
cyt c [2]: 0.099
